“Also recorded” adds a separate entry of the source.
What was measured:
A549 lung cancer cells = assay: Real-time impedance (ECIS) monitoring of γδ T cell killing; conditions: low dose
Experimental: In addition, real-time monitoring of γδ T-mediated killing of cancer cells was performed using the Electric Cell-Substrate Impedance Sensing (ECIS) monitoring system with an 8W10E+ culture chamber (Applied Biophysics). Mock or DAC-treated cancer cells were cultured in the chamber at 37° C. overnight until the cancer cells were fully attached to the bottom of the wells. Following the addition of γδ T cells, the detachment of cancer cells indicating cell death was recorded in real-time using multiple frequency capture with the ECIS software. Relative impendence at the time of γδ T cell addition was used for between-sample normalization.

[1] = test system: A549 human lung cancer cells; assay: SILAC-based quantitative surface proteomics of decitabine-treated cells; type: cell-based; conditions: A549, both D3 and D3R3, 100 nM
Experimental: (§1) For drug treatment experiments, cells were cultured with 100 nM decitabine (DAC; A3656, Sigma-Aldrich) for three days with daily change of complete medium and drug replenishment, followed by 3 to 4 days of cell recovery in the decitabine-free medium. To block the DAC's effect on immune synapse formation via actin cytoskeleton reorganization, the DAC-pretreated (D3R3) cells were treated with 1 μg/mL cytochalasin B (Cyto B; C6762, Sigma-Aldrich) for 1.5 hours prior to coculture with γδ T cells.
(§2) For quantitative mass spectrometry analysis, lung cancer cells were cultured for at least seven cell doublings in SILAC RPMI medium (88365, Thermo Fisher Scientific) supplemented with 10% FBS and heavy isotope-labeled amino acids (L-Lysine 13C6, L-Arginine 13C6) (CLM-2247-H-1, CLM-2265-H-1, Cambridge Isotope Laboratories). DAC-treated cells grown in the regular medium were considered as SILAC light counterparts.
(§3) Cancer cells (around 1.5×10^7 cells) were grown in a 15-cm culture dish and washed with ice-cold PBS (21040CM, Corning) before the labeling. […] The protein concentration of the supernatants was determined using Pierce 660 nm Protein Assay Reagent Kit (22660, Thermo Fisher Scientific) supplemented with Ionic Detergent Compatibility Reagent (22663, Thermo Fisher Scientific). […]

[2] = test system: A549, H1299 and CL1-0 human lung cancer cell lines; assay: SILAC-based surface proteomics compared across cell lines; conditions: D3R3, A549, H1299, CL1-0
Experimental: as §1, §2, §3

H1299 lung cancer cells = assay: Immunofluorescence imaging of immune synapses between cancer and γδ T cells; type: cell-based, human
Experimental: as §1
Cancer and γδ T cells were spun down onto poly-L-lysine coated coverslips by using a Cyto-Tek table-top cytofuge at 500 rpm for 5 minutes (Sakura Scientific) before fixation with ice-cold methanol or 4% (w/v) paraformaldehyde in PBS for 10 minutes. The fixed samples were blocked in detergent-free blocking solution [1% normal donkey serum (ab7475, abcam) and 3% BSA in PBS] without membrane permeabilization by detergents. Subsequently, cells were incubated with primary antibodies diluted in the blocking solution for 1 hour in a moist chamber at room temperature and washed with PBS. Labeling of fluorescent secondary antibodies at 1:200 dilution in PBS was carried out in the blocking buffer for 1 hour at room temperature. After PBS washing, cell nuclei were stained with Hoechst 33342 or DAPI (62248, Thermo Fisher Scientific) in PBS. Finally, the samples were washed with PBS and mounted on the slides. All slides were examined under an epifluorescence microscope EVOS FLc (Invitrogen), and the images were analyzed using the ImageJ software. For the visualization of immune synaptic proteins, cells were imaged with a high-resolution confocal microscope (LSM780, Zeiss) with a 63×oil objective and analyzed with the confocal software ZEN (Zeiss).

[3] = DAC D3R3 plus 1 μg/mL Cyto B 1.5 hours

## Nc1ncn([C@H]2C[C@H](O)[C@@H](CO)O2)c(=O)n1 [DAC, decitabine]
A549 lung cancer cells
  Cytotoxicity / cell viability with DAC alone: does not cause significant cytotoxicity; also recorded: minimal effects on cell viability
[1]
  Number of proteins with sustained upregulation by at least 1.4-fold: 314
[2]
  Number of proteins commonly upregulated in all three lung cancer cell lines: 431

## C=C1[C@@H](C)[C@H]2[C@H](Cc3ccccc3)NC(=O)[C@]23OC(=O)/C=C/[C@H](O)CCC[C@@H](C)C/C=C/[C@H]3[C@@H]1O [cytochalasin B]
H1299 lung cancer cells; [3]
  DAC-induced F-actin clustering and pTyr signaling at immune synapses: abolished
  ICAM-1 expression at immune synapses: minimal effects
H1299 lung cancer cells; DAC plus Cyto B
  DAC effects on width of the synaptic cleft: diminished
  DAC's enhancing effects on immune synapse formation: significantly counteracted
